pIC50: −log10 of the molar value.
Legend:
Assay type in all cases: cell-based
[1] = target: T1, human α1H T-type channels (Homo sapiens, UniProt O95180); assay: T-type calcium channel block, whole cell patch clamp in HEK cells (α1H); conditions: HEK cells, patch clamp, mainly non-inactivated protocol; values above 10 μM shown as 10 μM; read-out: T-type Calcium Channel Block α1H IC50
T1 construct: expressed in transfected cells; host or cells: HEK 293

hERG K+ channel = hERG K+ channel (Homo sapiens, UniProt Q12809); assay: hERG K+ Channel Block
[2] = target: T2, human α1G T-type channels (Homo sapiens, UniProt O43497); assay: T-type calcium channel block, whole cell patch clamp in HEK cells (α1G); conditions: HEK cells, patch clamp, mainly non-inactivated protocol; values above 10 μM shown as 10 μM, below 0.30 μM shown as 0.30 μM; read-out: T-type Calcium Channel Block α1G IC50
T2 construct: expressed in transfected cells; host or cells: HEK 293

Sequence of hERG K+ channel (Q12809 whole entry): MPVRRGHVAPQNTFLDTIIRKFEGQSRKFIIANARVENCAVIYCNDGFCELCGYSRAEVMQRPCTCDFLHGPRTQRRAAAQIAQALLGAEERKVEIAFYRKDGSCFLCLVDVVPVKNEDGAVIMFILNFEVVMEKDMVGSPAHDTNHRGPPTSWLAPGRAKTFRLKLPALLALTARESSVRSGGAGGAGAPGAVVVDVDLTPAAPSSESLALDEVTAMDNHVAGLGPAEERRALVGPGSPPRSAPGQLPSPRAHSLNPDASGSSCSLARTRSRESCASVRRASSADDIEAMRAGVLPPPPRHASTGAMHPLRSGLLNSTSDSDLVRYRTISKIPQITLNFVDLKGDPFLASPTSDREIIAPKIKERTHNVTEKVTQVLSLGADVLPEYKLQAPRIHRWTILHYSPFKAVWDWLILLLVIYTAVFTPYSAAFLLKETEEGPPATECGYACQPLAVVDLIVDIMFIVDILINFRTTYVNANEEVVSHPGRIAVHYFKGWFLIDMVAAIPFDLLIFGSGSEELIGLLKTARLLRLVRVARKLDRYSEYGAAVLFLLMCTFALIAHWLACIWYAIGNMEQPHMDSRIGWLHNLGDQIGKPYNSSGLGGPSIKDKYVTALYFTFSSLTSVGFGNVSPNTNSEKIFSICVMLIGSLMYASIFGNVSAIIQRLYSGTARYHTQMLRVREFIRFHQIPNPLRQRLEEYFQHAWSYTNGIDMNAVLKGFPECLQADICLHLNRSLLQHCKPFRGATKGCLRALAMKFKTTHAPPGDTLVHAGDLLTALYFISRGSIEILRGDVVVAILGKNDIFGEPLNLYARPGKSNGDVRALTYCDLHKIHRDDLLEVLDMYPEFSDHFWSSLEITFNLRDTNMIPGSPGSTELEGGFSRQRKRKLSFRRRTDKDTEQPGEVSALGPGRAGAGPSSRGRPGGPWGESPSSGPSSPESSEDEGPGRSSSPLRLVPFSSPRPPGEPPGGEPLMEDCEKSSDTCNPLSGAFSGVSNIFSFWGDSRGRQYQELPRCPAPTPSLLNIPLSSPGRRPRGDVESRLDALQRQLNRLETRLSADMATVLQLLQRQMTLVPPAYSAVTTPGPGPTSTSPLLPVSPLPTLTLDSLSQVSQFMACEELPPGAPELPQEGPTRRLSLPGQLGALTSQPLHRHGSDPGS
T1 sequence (O95180 whole entry): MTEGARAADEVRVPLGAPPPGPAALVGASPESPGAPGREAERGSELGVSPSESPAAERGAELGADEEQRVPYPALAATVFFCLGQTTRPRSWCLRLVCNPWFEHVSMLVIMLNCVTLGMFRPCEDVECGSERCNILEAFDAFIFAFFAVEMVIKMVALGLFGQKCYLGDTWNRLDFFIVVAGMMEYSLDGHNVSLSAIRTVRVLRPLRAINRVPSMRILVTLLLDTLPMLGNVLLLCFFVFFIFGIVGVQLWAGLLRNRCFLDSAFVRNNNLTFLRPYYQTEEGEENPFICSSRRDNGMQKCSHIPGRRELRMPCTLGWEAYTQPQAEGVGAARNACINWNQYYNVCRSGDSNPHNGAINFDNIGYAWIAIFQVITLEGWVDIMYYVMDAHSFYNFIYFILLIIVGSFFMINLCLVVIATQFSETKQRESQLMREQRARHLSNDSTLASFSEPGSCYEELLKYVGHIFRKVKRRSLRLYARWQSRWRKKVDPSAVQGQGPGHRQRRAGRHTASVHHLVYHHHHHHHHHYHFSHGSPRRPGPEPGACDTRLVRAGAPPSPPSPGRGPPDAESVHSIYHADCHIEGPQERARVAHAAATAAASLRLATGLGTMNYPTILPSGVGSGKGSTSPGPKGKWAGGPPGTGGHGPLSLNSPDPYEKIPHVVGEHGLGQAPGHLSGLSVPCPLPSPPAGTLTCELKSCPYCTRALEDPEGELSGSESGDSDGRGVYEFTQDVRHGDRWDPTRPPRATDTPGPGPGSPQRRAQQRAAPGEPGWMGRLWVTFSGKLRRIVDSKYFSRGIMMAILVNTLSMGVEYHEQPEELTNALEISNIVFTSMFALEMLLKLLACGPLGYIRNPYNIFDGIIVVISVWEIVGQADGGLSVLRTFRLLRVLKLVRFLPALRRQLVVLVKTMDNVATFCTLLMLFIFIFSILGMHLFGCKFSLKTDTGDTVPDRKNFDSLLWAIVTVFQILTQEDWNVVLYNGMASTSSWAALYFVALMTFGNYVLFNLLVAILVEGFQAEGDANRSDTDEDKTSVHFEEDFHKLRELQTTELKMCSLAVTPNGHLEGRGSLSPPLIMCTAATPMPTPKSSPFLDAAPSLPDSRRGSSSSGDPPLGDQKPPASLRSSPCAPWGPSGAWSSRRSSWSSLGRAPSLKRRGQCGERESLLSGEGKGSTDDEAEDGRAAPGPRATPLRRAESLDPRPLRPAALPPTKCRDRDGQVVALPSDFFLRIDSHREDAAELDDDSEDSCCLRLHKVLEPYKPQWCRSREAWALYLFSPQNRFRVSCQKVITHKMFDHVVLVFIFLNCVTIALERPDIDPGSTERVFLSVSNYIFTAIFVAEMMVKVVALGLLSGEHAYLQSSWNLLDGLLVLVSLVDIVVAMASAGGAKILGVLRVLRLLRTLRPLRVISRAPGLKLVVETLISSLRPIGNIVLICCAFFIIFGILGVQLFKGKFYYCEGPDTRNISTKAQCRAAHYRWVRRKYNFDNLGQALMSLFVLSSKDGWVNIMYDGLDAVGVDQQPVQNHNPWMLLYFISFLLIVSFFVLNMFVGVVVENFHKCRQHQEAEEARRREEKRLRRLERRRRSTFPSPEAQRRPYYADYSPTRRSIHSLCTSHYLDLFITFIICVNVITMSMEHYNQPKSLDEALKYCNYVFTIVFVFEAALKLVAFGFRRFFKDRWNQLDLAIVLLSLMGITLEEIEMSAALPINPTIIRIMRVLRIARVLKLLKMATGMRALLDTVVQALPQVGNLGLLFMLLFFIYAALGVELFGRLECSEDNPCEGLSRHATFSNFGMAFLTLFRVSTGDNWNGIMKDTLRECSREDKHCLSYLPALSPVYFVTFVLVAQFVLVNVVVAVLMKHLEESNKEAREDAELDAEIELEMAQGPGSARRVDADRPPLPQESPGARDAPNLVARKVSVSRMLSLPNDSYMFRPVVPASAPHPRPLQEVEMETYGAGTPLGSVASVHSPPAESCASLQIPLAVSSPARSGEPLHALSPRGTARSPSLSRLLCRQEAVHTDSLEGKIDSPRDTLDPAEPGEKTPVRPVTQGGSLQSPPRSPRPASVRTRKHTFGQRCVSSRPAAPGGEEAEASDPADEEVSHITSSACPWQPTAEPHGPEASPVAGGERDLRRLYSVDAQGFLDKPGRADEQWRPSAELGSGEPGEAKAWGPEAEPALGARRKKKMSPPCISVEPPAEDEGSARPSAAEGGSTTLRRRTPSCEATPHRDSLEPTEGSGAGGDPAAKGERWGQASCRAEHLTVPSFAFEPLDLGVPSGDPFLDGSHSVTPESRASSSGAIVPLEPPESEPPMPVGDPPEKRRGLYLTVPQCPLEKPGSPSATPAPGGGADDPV

CC(C)CS(=O)(=O)NCCN1CCC(CNC(=O)c2cc(F)cc(C(F)(F)F)c2)CC1 [Compound 26, 3-fluoro-N-((1-(2-(2-methylpropylsulfonamido)ethyl)piperidin-4-yl)methyl)-5-(trifluoromethyl)benzamide]
pIC50 [1]: 6.70 | pIC50 (hERG K+ channel): 5.59

O=C(NCC1CCN(CCNC(=O)C2CC2)CC1)c1cc(C(F)(F)F)cc(C(F)(F)F)c1 [Compound 59, N-((1-(2-(cyclopropanecarboxamido)ethyl)piperidin-4-yl)methyl)-3,5-bis(trifluoromethyl)benzamide]
pIC50 [1]: 5.78 | pIC50 (hERG K+ channel): 5.55

CC(C)S(=O)(=O)NCCN1CCC(CC(=O)Nc2cc(Br)cc(C(F)(F)F)c2)CC1 [Compound 391, N-(3-bromo-5-(trifluoromethyl)phenyl)-2-(1-(2-(1-methylethylsulfonamido)ethyl)piperidin-4-yl)acetamide]
pIC50 [2]: > 6.52 | pIC50 (hERG K+ channel): 6.20

CC(C)CS(=O)(=O)NCCN1CCC(CC(=O)Nc2cc(F)cc(C(F)(F)F)c2)CC1 [Compound 427, N-(3-fluoro-5-(trifluoromethyl)phenyl)-2-(1-(2-(2-methylpropylsulfonamido)ethyl)piperidin-4-yl)acetamide]
pIC50 [2]: > 6.52 | pIC50 (hERG K+ channel): 6.35

CC(C)(C)ONC(=O)CN1CCC(CNC(=O)c2cc(C(F)(F)F)cc(C(F)(F)F)c2)CC1 [Compound 560, N-((1-(2-(tert-butoxyamino)-2-oxoethyl)piperidin-4-yl)methyl)-3,5-bis(trifluoromethyl)benzamide]
pIC50 [2]: 6.33 | pIC50 [1]: 6.23

O=C(CN1CCC(CNC(=O)c2cc(F)cc(C(F)(F)F)c2)CC1)NC1(C2CCOCC2)CC1 [Compound 561, 3-fluoro-N-((1-(2-oxo-2-(1-(tetrahydro-2H-pyran-4-yl)cyclopropylamino)ethyl)piperidin-4-yl)methyl)-5-(trifluoromethyl) benzamide]
pIC50 [2]: > 6.52 | pIC50 [1]: 6.57

COc1cc(F)cc(C(=O)NCC2CCN(CC(=O)NC3(C4CCOCC4)CC3)CC2)c1 [Compound 562, 3-fluoro-5-methoxy-N-((1-(2-oxo-2-(1-(tetrahydro-2H-pyran-4-yl)cyclopropylamino)ethyl)piperidin-4-yl)methyl)benzamide]
pIC50 [2]: 6.40 | pIC50 [1]: 6.18

O=C(CN1CCC(CNC(=O)c2cc(F)cc(Cl)c2)CC1)NC1(C2CCOCC2)CC1 [Compound 563, 3-chloro-5-fluoro-N-((1-(2-oxo-2-(1-(tetrahydro-2H-pyran-4-yl)cyclopropylamino)ethyl)piperidin-4-yl)methyl)benzamide]
pIC50 [2]: > 6.52 | pIC50 [1]: 6.51

COCC(C)(C)NC(=O)CN1CCC(CNC(=O)c2cc(F)cc(C(F)(F)F)c2)CC1 [Compound 564, 3-fluoro-N-((1-(2-(1-methoxy-2-methylpropan-2-ylamino)-2-oxoethyl)piperidin-4-yl)methyl)-5-(trifluoromethyl)benzamide]
pIC50 [2]: > 6.52 | pIC50 [1]: 7.00

CC(C)(C)S(=O)(=O)NCCN1CCC(CNC(=O)c2cc(F)cc(Cl)c2)CC1 [Compound 565, 3-chloro-N-((1-(2-(1,1-dimethylethylsulfonamido)ethyl)piperidin-4-yl)methyl)-5-fluoro-benzamide]
pIC50 [2]: 6.51 | pIC50 [1]: 6.66

COCC(C)(C)NC(=O)CN1CCC(CNC(=O)c2cccc(Cl)c2)CC1 [Compound 566, 3-chloro-N-((1-(2-(1-methoxy-2-methylpropan-2-ylamino)-2-oxoethyl)piperidin-4-yl)methyl) benzamide]
pIC50 [2]: 6.12 | pIC50 [1]: 6.09

O=C(NCC1CCN(CCN2C(=O)NC3(CCCCC3)C2=O)CC1)c1cc(F)cc(C(F)(F)F)c1 [Compound 568, N-((1-(2-(2,4-dioxo-1,3-diazaspiro[4.5]decan-3-yl)ethyl)piperidin-4-yl)methyl)-3-fluoro-5-(trifluoromethyl)benzamide]
pIC50 [2]: 5.87 | pIC50 [1]: 6.05

NC1(C(=O)NCCN2CCC(CNC(=O)c3cc(F)cc(C(F)(F)F)c3)CC2)CCCCC1 [Compound 570, N-((1-(2-(1-aminocyclohexanecarboxamido)ethyl)piperidin-4-yl)methyl)-3-fluoro-5-(trifluoromethyl)benzamide]
pIC50 [2]: 5.69 | pIC50 [1]: 5.63

NC1(C(=O)NCCN2CCC(CNC(=O)c3cc(F)cc(C(F)(F)F)c3)CC2)CCC1 [Compound 571, N-((1-(2-(1-aminocyclobutanecarboxamido)ethyl)piperidin-4-yl)methyl)-3-fluoro-5-(trifluoromethyl) benzazmide]
pIC50 [2]: < 5.00 | pIC50 [1]: < 5.00

CC(C)(C)OC(=O)NC1(C(=O)NCCN2CCC(CNC(=O)c3cc(F)cc(C(F)(F)F)c3)CC2)CCC1 [Compound 572, tert-buyl 1-(2-(4-((3-fluoro-5-(trifluoromethyl)benzamido)methyl)piperidin-1-yl)ethylcarbamoyl) cyclobutylcarbamate]
pIC50 [2]: 6.31 | pIC50 [1]: 5.81

CC(C)(C)S(=O)(=O)NCCN1CCC(CNC(=O)c2cccc(Cl)c2)CC1 [Compound 573, 3-chloro-N-((1-(2-(1,1-dimethylethylsulfonamido)ethyl)piperidin-4-yl)methyl)benzamide]
pIC50 [2]: 5.90 | pIC50 [1]: 6.00

Cc1cc(F)cc(C(=O)NCC2CCN(CCNS(=O)(=O)C(C)(C)C)CC2)c1 [Compound 575, N-((1-(2-(1,1-dimethylethylsulfonamido)ethyl)piperidin-4-yl)methyl)-3-fluoro-5-methylbenzamide]
pIC50 [2]: 5.90 | pIC50 [1]: 5.98

COc1cc(OC)cc(C(=O)NCC2CCN(CCNS(=O)(=O)C(C)(C)C)CC2)c1 [Compound 576, N-((1-(2-(1,1-dimethyethylsulfonamido)ethyl)piperidin-4-yl)methyl)-3,5-dimethoxybenzamide]
pIC50 [2]: 6.37 | pIC50 [1]: 6.03

CN(C(=O)CN1CCC(CNC(=O)c2cc(F)cc(Cl)c2)CC1)C(C)(C)C(F)(F)F [Compound 579, 3-chloro-5-fluoro-N-((1-(2-(methyl (1,1,1-trifluoro-2-methylpropan-2-yl)amino)-2-oxoethyl)piperidin-4-yl)methyl)benzamide]
pIC50 [2]: > 6.52 | pIC50 [1]: 7.30

COc1cc(F)cc(C(=O)NCC2CCN(CC(=O)N(C)C3(C)CCC3)CC2)c1 [Compound 584, 3-fluoro-5-methoxy-N-((1-(2-(methyl(1-methylcyclobutyl)amino)-2-oxoethyl)piperidin-4-yl)methyl)benzamide]
pIC50 [2]: > 6.52 | pIC50 [1]: 6.55

CS(=O)(=O)c1cc(C(=O)NCC2CCN(CC(=O)NC3CCCC3)CC2)cc(C(F)(F)F)c1 [Compound 585, N-((1-(2-(cyclopentylamino)-2-oxoethyl)piperidin-4-yl)methyl)-3-(methylsulfonyl)-5-(trifluoromethyl)benzamide]
pIC50 [2]: < 5.00 | pIC50 [1]: < 5.00

CS(=O)(=O)c1cc(C(=O)NCC2CCN(CCNC(=O)C3(C(F)(F)F)CCC3)CC2)cc(C(F)(F)F)c1 [Compound 586, 3-(methylsulfonyl)-5-(trifluoro-methyl)-N-((1-(2-(1-(trifluoromethyl)cyclobutane-carboxamido)ethyl)piperidin-4-yl)methyl)benzamide]
pIC50 [2]: < 5.00 | pIC50 [1]: 5.32

CC(C)(C(=O)NCCN1CCC(CNC(=O)c2cc(C(F)(F)F)cc(S(C)(=O)=O)c2)CC1)C(F)(F)F [Compound 587, 3-(methylsulfonyl)-N-((1-(2-(3,3,3-trifluoro-2,2-dimethyl-propanamido)ethyl)piperidin-4-yl)methyl)-5-(trifluoromethyl) benzamide]
pIC50 [2]: < 5.00 | pIC50 [1]: 5.44

Source: patent US8569344B2, “N-piperidinyl acetamide derivatives as calcium channel blockers” (Zalicus Pharmaceuticals Ltd., priority 2008, dated 2013)
